Measurements from PubChem BioAssay AID330 (DTP/NCI, 2004).
“And” between values parts separate entries of the source, which are not always exact repeats. Equal values may be shown once. Toxic doses and inconclusive results are not listed.

System: P388 leukemia ip, CD2F1 mice, survival T/C
Assay: NCI In Vivo Anticancer Drug Screen. Data for tumor model P388 Leukemia (intraperitoneal) in CD2F1 (CDF1) mice
Details: endpoint: median survival time, higher = longer survival
Outline: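 Mice carrying the transplanted tumor received test compound or vehicle. Survival was recorded in each group, and the value is the treated-group measurement divided by that of the vehicle-treated control group.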

[1] = dose: 50.0 mg/kg/injection, schedule: Q01DX005 (ip), vehicle: Klucel (hydroxypropylcellulose) (HPC)
[2] = dose: 100.0 mg/kg/injection, schedule: Q01DX005 (ip), vehicle: Klucel (hydroxypropylcellulose) (HPC)
[3] = dose: 200.0 mg/kg/injection, schedule: Q01DX005 (ip), vehicle: Klucel (hydroxypropylcellulose) (HPC)
[4] = dose: 50.0 mg/kg/injection, schedule: Q01DX005 (ip), vehicle: saline with Tween-80
[5] = dose: 100.0 mg/kg/injection, schedule: Q01DX005 (ip), vehicle: saline with Tween-80
[6] = dose: 12.5 mg/kg/injection, schedule: Q01DX009 (ip), vehicle: Klucel (hydroxypropylcellulose) (HPC)
[7] = dose: 25.0 mg/kg/injection, schedule: Q01DX009 (ip), vehicle: Klucel (hydroxypropylcellulose) (HPC)
[8] = dose: 50.0 mg/kg/injection, schedule: Q01DX009 (ip), vehicle: Klucel (hydroxypropylcellulose) (HPC)
[9] = dose: 100.0 mg/kg/injection, schedule: Q01DX009 (ip), vehicle: Klucel (hydroxypropylcellulose) (HPC)
[10] = dose: 200.0 mg/kg/injection, schedule: Q01DX009 (ip), vehicle: Klucel (hydroxypropylcellulose) (HPC)
[11] = dose: 50.0 mg/kg/injection, schedule: Q01DX009 (ip), vehicle: saline with Tween-80
[12] = dose: 100.0 mg/kg/injection, schedule: Q01DX009 (ip), vehicle: saline with Tween-80
[13] = dose: 200.0 mg/kg/injection, schedule: Q01DX009 (ip), vehicle: saline with Tween-80
[14] = dose: 50.0 mg/kg/injection, schedule: Q04DX003 (ip), vehicle: saline
[15] = dose: 100.0 mg/kg/injection, schedule: Q04DX003 (ip), vehicle: saline
[16] = dose: 12.5 mg/kg/injection, schedule: Q01DX009 (ip), vehicle: saline
[17] = dose: 25.0 mg/kg/injection, schedule: Q01DX009 (ip), vehicle: saline
[18] = dose: 50.0 mg/kg/injection, schedule: Q01DX009 (ip), vehicle: saline
[19] = dose: 100.0 mg/kg/injection, schedule: Q01DX009 (ip), vehicle: saline
[20] = dose: 200.0 mg/kg/injection, schedule: Q01DX009 (ip), vehicle: saline
[21] = dose: 400.0 mg/kg/injection, schedule: Q01DX009 (ip), vehicle: saline
[22] = dose: 6.25 mg/kg/injection, schedule: Q01DX009 (ip), vehicle: saline
[23] = dose: 100.0 mg/kg/injection, schedule: Q01DX001 (ip), vehicle: saline with Tween-80
[24] = dose: 200.0 mg/kg/injection, schedule: Q01DX001 (ip), vehicle: saline with Tween-80
[25] = dose: 60.0 mg/kg/injection, schedule: Q01DX005 (ip), vehicle: Klucel (hydroxypropylcellulose) (HPC)

CCN(CC)Cc1cc(N=Nc2cc(OC)c(N=Nc3ccc([N+](=O)[O-])cc3)cc2OC)c2cccnc2c1O
T/C (dose: 25.0 mg/kg/injection, schedule: Q01DX005 (ip), vehicle: Klucel (hydroxypropylcellulose) (HPC)): 107 % of control
T/C [1]: 106 % of control and 107 % of control and 114 % of control
T/C [2]: 112 % of control and 117 % of control and 123 % of control
T/C [3]: 112 % of control and 117 % of control
T/C (dose: 400.0 mg/kg/injection, schedule: Q01DX005 (ip), vehicle: Klucel (hydroxypropylcellulose) (HPC)): 116 % of control

O=C(Nc1cccc(Cl)c1)Nc1ccc(Sc2ccc(Cl)cc2)o1
T/C [4]: 97 % of control
T/C [5]: 88 % of control
T/C (dose: 200.0 mg/kg/injection, schedule: Q01DX005 (ip), vehicle: saline with Tween-80): 92 % of control

O=C1C(C(=NCCO)c2ccccc2)=C(O)c2ccccc21
T/C (dose: 25.0 mg/kg/injection, schedule: Q04DX002 (ip), vehicle: saline with Tween-80): 90 % of control
T/C (dose: 50.0 mg/kg/injection, schedule: Q04DX002 (ip), vehicle: saline with Tween-80): 101 % of control
T/C (dose: 100.0 mg/kg/injection, schedule: Q04DX002 (ip), vehicle: saline with Tween-80): 89 % of control

O=C1C(Br)=C(Br)C(=O)c2c(Cl)ccc(O)c21
T/C [6]: 101 % of control
T/C [7]: 98 % of control
T/C [8]: 101 % of control and 105 % of control
T/C [9]: 88 % of control
T/C [10]: 100 % of control

O=C(NC(Cc1ccc(I)cc1)C(=O)O)c1ccc(Cl)cc1 (stereo not given)
T/C [1]: 95 % of control
T/C [2]: 100 % of control
T/C [3]: 108 % of control

CCN(CC)CCNc1ccc(C)c2sc3c(OC)cccc3c(=O)c12
T/C [11]: 113 % of control
T/C [12]: 100 % of control
T/C [13]: 116 % of control

CCOC(=O)c1cnc(N(C)C)nc1SC(=N)N
T/C [14]: 100 % of control
T/C [15]: 95 % of control
T/C (dose: 200.0 mg/kg/injection, schedule: Q04DX003 (ip), vehicle: saline): 104 % of control

CN(C)CCCNC(=O)/C=C\C(=O)O
T/C [16]: 107 % of control
T/C [17]: 100 % of control
T/C [18]: 109 % of control and 93 % of control
T/C [19]: 94 % of control
T/C [20]: 94 % of control
T/C [21]: 97 % of control

Nc1ccc[nH]c1=O
T/C [16]: 100 % of control and 113 % of control
T/C [17]: 103 % of control
T/C [18]: 98 % of control and 103 % of control
T/C [19]: 103 % of control and 113 % of control
T/C [21]: 100 % of control

CC[N](CC)[Ge]([CH2]C)[CH2]C.CC[N](CC)[Ge]([CH2]C)[CH2]C
T/C [22]: 106 % of control
T/C [16]: 109 % of control
T/C [14]: 116 % of control
T/C [15]: 114 % of control

O=C(O)C(O)C(O)C(=O)O.[Co+3].[NH-]CC[NH-].[NH-]CC[NH-].[NH-]CC[NH-] (stereo not given)
T/C [4]: 104 % of control
T/C [5]: 100 % of control

Nc1cc(C(=O)Nc2ccc(C3=NCCN3)cc2)cc(C(=O)Nc2ccc(C3=NCCN3)cc2)c1
T/C (dose: 32.0 mg/kg/injection, schedule: Q01DX010 (ip), vehicle: saline): 168 % of control

Cc1ccc(N2OC3(CCCCC3)n3c(=O)c4ccccc4c(=O)n3C2c2ccccc2)cc1 (stereo not given)
T/C [8]: 105 % of control
T/C [9]: 106 % of control
T/C [10]: 99 % of control

CNC1C(c2ccc(C)cc2)=NN(c2ccccc2)C1c1ccccc1 (stereo not given)
T/C (dose: 100.0 mg/kg/injection, schedule: Q01DX001 (ip), vehicle: saline sonified): 100 % of control
T/C (dose: 200.0 mg/kg/injection, schedule: Q01DX001 (ip), vehicle: saline sonified): 100 % of control
T/C (dose: 400.0 mg/kg/injection, schedule: Q01DX001 (ip), vehicle: saline sonified): 105 % of control

N#C/C(=C\c1ccccc1)CN1CCCCC1
T/C [23]: 110 % of control
T/C [24]: 122 % of control

CN1c2ccccc2C2=C(C3=C(CS2)C(=O)CCS3)S1(=O)=O
T/C [23]: 100 % of control
T/C [24]: 99 % of control
T/C (dose: 400.0 mg/kg/injection, schedule: Q01DX001 (ip), vehicle: saline with Tween-80): 100 % of control

CC(=O)OC1CC2C(C)(C)OC(=O)C=CC2(C)C2CCC3(C)C(c4ccoc4)C(=O)C4OC43C12C (stereo not given)
T/C (dose: 7.5 mg/kg/injection, schedule: Q01DX005 (ip), vehicle: Klucel (hydroxypropylcellulose) (HPC)): 88 % of control
T/C (dose: 15.0 mg/kg/injection, schedule: Q01DX005 (ip), vehicle: Klucel (hydroxypropylcellulose) (HPC)): 93 % of control
T/C (dose: 30.0 mg/kg/injection, schedule: Q01DX005 (ip), vehicle: Klucel (hydroxypropylcellulose) (HPC)): 95 % of control
T/C [25]: 93 % of control

Nc1ccc(O)cc1O
T/C (dose: 1.56 mg/kg/injection, schedule: Q01DX009 (ip), vehicle: saline): 98 % of control
T/C (dose: 3.12 mg/kg/injection, schedule: Q01DX009 (ip), vehicle: saline): 109 % of control
T/C [22]: 106 % of control
T/C [16]: 118 % of control and 119 % of control

COc1c2ccccc2c(OC)c2c(OC(C)=O)c3c(c(OC(C)=O)c12)CC=CC3
T/C (dose: 3.13 mg/kg/injection, schedule: Q01DX009 (ip), vehicle: other): 96 % of control
T/C (dose: 6.25 mg/kg/injection, schedule: Q01DX009 (ip), vehicle: other): 104 % of control
T/C (dose: 25.0 mg/kg/injection, schedule: Q01DX009 (ip), vehicle: other): 93 % of control
T/C (dose: 50.0 mg/kg/injection, schedule: Q01DX009 (ip), vehicle: other): 96 % of control

CC1(C)NNC(=S)NC1=O
T/C [8]: 99 % of control
T/C [11]: 100 % of control
T/C [9]: 97 % of control
T/C [12]: 113 % of control
T/C [10]: 94 % of control
T/C [13]: 97 % of control

O=C(O)CSCCCCCCSCC(=O)O
T/C [18]: 103 % of control
T/C [19]: 103 % of control
T/C [20]: 103 % of control

O=P(c1ccccc1)(c1ccccc1)c1ccccc1.O=P(c1ccccc1)(c1ccccc1)c1ccccc1.O=S(=O)(O)O.[Fe]
T/C (dose: 100.0 mg/kg/injection, schedule: Q04DX003 (ip), vehicle: Klucel (hydroxypropylcellulose) (HPC)): 93 % of control
T/C (dose: 200.0 mg/kg/injection, schedule: Q04DX003 (ip), vehicle: Klucel (hydroxypropylcellulose) (HPC)): 89 % of control

CNC(=O)OCc1c(COC(=O)NC)c(-c2ccc(Cl)cc2)n2c1CCC2
T/C (dose: 6.25 mg/kg/injection, schedule: Q01DX009 (ip), vehicle: Klucel (hydroxypropylcellulose) (HPC)): 150 % of control
T/C [6]: 94 % of control
T/C [7]: 88 % of control
T/C [8]: 104 % of control

c1ccccc1
T/C (dose: 0.12 % in 0.5 ml injection vol, schedule: Q01DX009 (ip), vehicle: water): 100 % of control
T/C (dose: 0.25 % in 0.5 ml injection vol, schedule: Q01DX009 (ip), vehicle: water): 102 % of control
T/C (dose: 0.5 % in 0.5 ml injection vol, schedule: Q01DX009 (ip), vehicle: water): 104 % of control
T/C (dose: 1.0 % in 0.5 ml injection vol, schedule: Q01DX009 (ip), vehicle: water): 100 % of control
T/C (dose: 2.0 % in 0.5 ml injection vol, schedule: Q01DX009 (ip), vehicle: water): 100 % of control and 102 % of control
T/C (dose: 4.0 % in 0.5 ml injection vol, schedule: Q01DX009 (ip), vehicle: water): 99 % of control
T/C (dose: 8.0 % in 0.5 ml injection vol, schedule: Q01DX009 (ip), vehicle: water): 100 % of control
T/C (dose: 16.0 % in 0.5 ml injection vol, schedule: Q01DX009 (ip), vehicle: water): 95 % of control

Oc1cc(-c2cc3cccc[n+]3o2)cc(O)c1O
T/C [6]: 100 % of control
T/C [7]: 99 % of control
T/C [8]: 100 % of control

CCOC1(OCC)CC(c2ccccc2)c2cnn(-c3ccccc3)c2O1 (stereo not given)
T/C [25]: 92 % of control
T/C (dose: 120.0 mg/kg/injection, schedule: Q01DX005 (ip), vehicle: Klucel (hydroxypropylcellulose) (HPC)): 93 % of control
T/C (dose: 240.0 mg/kg/injection, schedule: Q01DX005 (ip), vehicle: Klucel (hydroxypropylcellulose) (HPC)): 87 % of control
